This is an account of results in ChEMBL document CHEMBL1148522 (J Med Chem, 2006).

For this assay, the target named is Proto-oncogene tyrosine-protein kinase Src (Homo sapiens, UniProt P12931). In words: Inhibition of SRC using polyE4Y as substrate.
Chain of Proto-oncogene tyrosine-protein kinase Src (P12931 2-536 limits assumed): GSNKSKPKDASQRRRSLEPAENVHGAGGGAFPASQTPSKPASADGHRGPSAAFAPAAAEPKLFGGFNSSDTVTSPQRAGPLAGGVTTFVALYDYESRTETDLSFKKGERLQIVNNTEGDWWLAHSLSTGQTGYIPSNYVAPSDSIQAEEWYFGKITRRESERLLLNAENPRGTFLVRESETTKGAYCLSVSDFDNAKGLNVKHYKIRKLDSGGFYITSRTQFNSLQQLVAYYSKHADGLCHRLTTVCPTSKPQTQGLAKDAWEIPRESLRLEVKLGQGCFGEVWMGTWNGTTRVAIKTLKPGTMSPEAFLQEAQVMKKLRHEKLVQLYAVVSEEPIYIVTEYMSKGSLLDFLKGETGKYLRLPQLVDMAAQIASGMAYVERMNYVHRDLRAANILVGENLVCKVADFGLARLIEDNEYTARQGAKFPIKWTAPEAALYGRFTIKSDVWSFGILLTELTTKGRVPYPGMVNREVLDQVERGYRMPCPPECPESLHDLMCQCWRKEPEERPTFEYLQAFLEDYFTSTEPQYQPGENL

With `CC[C@H](C)[C@H](NC(=O)[C@H](CS)NC(C)=O)C(=O)N[C@@H](Cc1ccc(O)cc1)C(=O)N[C@@H](CCCCN)C(=O)N[C@@H](Cc1ccc(O)cc1)C(=O)N[C@@H](Cc1ccc(N)cc1)C(=O)O`, the IC50 (commonly the concentration at which inhibition is half-maximal) is greater than 700 µM.

As for `CC[C@H](C)[C@H](NC(=O)[C@H](CS)NC(C)=O)C(=O)N[C@@H](Cc1ccc(O)cc1)C(=O)N[C@@H](CCCCN)C(=O)N[C@@H](Cc1ccc(NS(C)(=O)=O)cc1)C(=O)N[C@@H](Cc1ccc(O)cc1)C(=O)O`, the half-inhibitory concentration (IC50) is greater than 700 µM.
